According to ChEMBL document CHEMBL5257125, “Discovery of pyrido[4,3-d]pyrimidinone derivatives as novel Wee1 inhibitors” (Bioorg Med Chem, 2023):

Legend:
T47D = experiment: Antiproliferative activity against human T47D cells incubated for 72 hrs by Celltiter-glo assay; format: functional, cell-based
MV4-11 [1] = experiment: Induction of apoptosis in human MV4-11 cells assessed as viable cells at 200 nM after 48 hrs by Annexin V FITC/PI staining based flow cytometry analysis (reference value: 86.6%); format: functional; conditions: read-out: Activity
MV4-11 [2] = experiment: Induction of apoptosis in human MV4-11 cells assessed as late apoptotic cells at 3200 nM after 48 hrs by Annexin V FITC/PI staining based flow cytometry analysis (reference value: 4.07%); format: functional
MV4-11 [3] = experiment: Induction of apoptosis in human MV4-11 cells assessed as necrotic cells at 200 nM after 48 hrs by Annexin V FITC/PI staining based flow cytometry analysis (reference value: 0.00968%); format: functional
MV4-11 [4] = experiment: Induction of apoptosis in human MV4-11 cells assessed as late apoptotic cells at 200 nM after 48 hrs by Annexin V FITC/PI staining based flow cytometry analysis (reference value: 4.07%); format: functional
MV4-11 [5] = experiment: Induction of apoptosis in human MV4-11 cells assessed as viable cells at 1600 nM after 48 hrs by Annexin V FITC/PI staining based flow cytometry analysis (reference value: 86.6%); format: functional; conditions: read-out: Activity
MV4-11 [6] = experiment: Induction of apoptosis in human MV4-11 cells assessed as viable cells at 400 nM after 48 hrs by Annexin V FITC/PI staining based flow cytometry analysis (reference value: 86.6%); format: functional; conditions: read-out: Activity
MV4-11 [7] = experiment: Antiproliferative activity against human MV4-11 cells incubated for 72 hrs by Celltiter-glo assay; format: functional, cell-based; conditions: MV4-11, 72 h
MV4-11 [8] = experiment: Induction of apoptosis in human MV4-11 cells assessed as early apoptotic cells at 400 nM after 48 hrs by Annexin V FITC/PI staining based flow cytometry analysis (reference value: 9.33%); format: functional
[9] = Metabolic stability in mouse liver microsomes assessed as parent compound remaining preincubated with NADPH for 5 mins followed by compound addition and measured upto 90 mins by LC-MS/MS analysis; format: ADME, Microsome; conditions: read-out: Stability
MV4-11 [10] = experiment: Induction of cell cycle arrest in human MV4-11 cells assessed as accumulation of cells at G0/G1 phase at 800 nM incubated for 24 hrs by flow cytometry analysis; format: functional
MV4-11 [11] = experiment: Induction of apoptosis in human MV4-11 cells assessed as necrotic cells at 800 nM after 48 hrs by Annexin V FITC/PI staining based flow cytometry analysis (reference value: 0.00968%); format: functional
MV4-11 [12] = experiment: Induction of apoptosis in human MV4-11 cells assessed as early apoptotic cells at 1600 nM after 48 hrs by Annexin V FITC/PI staining based flow cytometry analysis (reference value: 9.33%); format: functional
MV4-11 [13] = experiment: Induction of apoptosis in human MV4-11 cells assessed as early apoptotic cells at 200 nM after 48 hrs by Annexin V FITC/PI staining based flow cytometry analysis (reference value: 9.33%); format: functional
MV4-11 [14] = experiment: Induction of apoptosis in human MV4-11 cells assessed as early apoptotic cells at 800 nM after 48 hrs by Annexin V FITC/PI staining based flow cytometry analysis (reference value: 9.33%); format: functional
MV4-11 [15] = experiment: Induction of apoptosis in human MV4-11 cells assessed as viable cells at 3200 nM after 48 hrs by Annexin V FITC/PI staining based flow cytometry analysis (reference value: 86.6%); format: functional; conditions: read-out: Activity
MV4-11 [16] = experiment: Induction of apoptosis in human MV4-11 cells assessed as late apoptotic cells at 1600 nM after 48 hrs by Annexin V FITC/PI staining based flow cytometry analysis (reference value: 4.07%); format: functional
MV4-11 [17] = experiment: Induction of apoptosis in human MV4-11 cells assessed as viable cells at 800 nM after 48 hrs by Annexin V FITC/PI staining based flow cytometry analysis (reference value: 86.6%); format: functional; conditions: read-out: Activity
Wee1-like protein kinase [18] = target: T1, Wee1-like protein kinase (Homo sapiens, UniProt P30291); experiment: Inhibition of Wee1 in human MV4-11 cells assessed as reduction in phosphorylation of CDK1-Y15 incubated for 24 hrs by Western blot analysis; format: cell-based; conditions: dose 0.01-5 µM
Target sequence in this assay (P30291 whole entry, looked up): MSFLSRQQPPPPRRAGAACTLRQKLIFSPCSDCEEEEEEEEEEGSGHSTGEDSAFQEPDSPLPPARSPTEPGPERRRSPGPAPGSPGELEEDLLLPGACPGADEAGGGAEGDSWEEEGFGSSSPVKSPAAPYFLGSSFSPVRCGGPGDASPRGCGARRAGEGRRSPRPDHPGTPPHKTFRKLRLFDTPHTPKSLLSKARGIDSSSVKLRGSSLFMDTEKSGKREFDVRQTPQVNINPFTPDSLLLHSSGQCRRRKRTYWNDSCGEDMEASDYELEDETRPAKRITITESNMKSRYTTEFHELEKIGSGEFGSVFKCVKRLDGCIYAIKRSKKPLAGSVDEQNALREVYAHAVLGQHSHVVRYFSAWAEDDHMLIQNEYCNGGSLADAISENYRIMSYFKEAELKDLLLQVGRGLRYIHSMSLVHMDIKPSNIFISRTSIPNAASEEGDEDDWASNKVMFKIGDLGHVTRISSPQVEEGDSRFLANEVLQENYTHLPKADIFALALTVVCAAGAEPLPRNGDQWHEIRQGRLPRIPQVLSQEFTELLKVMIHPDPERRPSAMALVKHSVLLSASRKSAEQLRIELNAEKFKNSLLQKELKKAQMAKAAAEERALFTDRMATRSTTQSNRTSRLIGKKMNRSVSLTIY

MV4-11 [19] = experiment: Induction of apoptosis in human MV4-11 cells assessed as necrotic cells at 1600 nM after 48 hrs by Annexin V FITC/PI staining based flow cytometry analysis (reference value: 0.00968%); format: functional
MV4-11 [20] = experiment: Induction of apoptosis in human MV4-11 cells assessed as necrotic cells at 400 nM after 48 hrs by Annexin V FITC/PI staining based flow cytometry analysis (reference value: 0.00968%); format: functional
MV4-11 [21] = experiment: Induction of apoptosis in human MV4-11 cells assessed as early apoptotic cells at 3200 nM after 48 hrs by Annexin V FITC/PI staining based flow cytometry analysis (reference value: 9.33%); format: functional
MV4-11 [22] = experiment: Induction of apoptosis in human MV4-11 cells assessed as late apoptotic cells at 400 nM after 48 hrs by Annexin V FITC/PI staining based flow cytometry analysis (reference value: 4.07%); format: functional
MV4-11 [23] = experiment: Induction of apoptosis in human MV4-11 cells assessed as late apoptotic cells at 800 nM after 48 hrs by Annexin V FITC/PI staining based flow cytometry analysis (reference value: 4.07%); format: functional
Wee1-like protein kinase [24] = target: T1, Wee1-like protein kinase; experiment: Inhibition of recombinant human Wee1 (214 to end residues) incubated for 1 hr in presence of tracer 178 by fluorescence based assay
Target sequence in this assay (P30291 whole entry): as the sequence (P30291 whole entry, looked up) above

MV4-11 [25] = experiment: Induction of apoptosis in human MV4-11 cells assessed as necrotic cells at 3200 nM after 48 hrs by Annexin V FITC/PI staining based flow cytometry analysis (reference value: 0.00968%); format: functional
MV4-11 [26] = experiment: Induction of DNA damage in human MV4-11 cells assessed as increase in gamma-H2AX expression incubated for 24 hrs by Western blot analysis; format: functional, cell-based; conditions: dose 0.05-0.2 µM

## CC(=O)Nc1cc(Nc2cc3ncn(-c4c(Cl)cccc4Cl)c(=O)c3cn2)ccc1N1C[C@@H](C)N[C@@H](C)C1
T47D
  IC50: 4640 nM
MV4-11 [1]
  viability at 0.2 µM: 84.7%
MV4-11 [2]
  Activity: 12%
MV4-11 [3]
  Activity: 0.00954%
MV4-11 [4]
  Activity: 3.34%
MV4-11 [5]
  viability at 1.6 µM: 82.4%
MV4-11 [6]
  viability at 0.4 µM: 84.5%
MV4-11 [7]
  IC50: 763 nM
MV4-11 [8]
  Activity: 10.4%
[9]
  remaining at 1.5 h: 60%
MV4-11 [10]
  Activity: 63%
MV4-11 [11]
  Activity: 0.029%
MV4-11 [12]
  Activity: 12.4%
MV4-11 [13]
  Activity: 12%
MV4-11 [14]
  Activity: 12.2%
MV4-11 [15]
  viability at 3.2 µM: 66.7%
MV4-11 [16]
  Activity: 5.11%
MV4-11 [17]
  viability at 0.8 µM: 81.7%
Wee1-like protein kinase [18]
  inhibition: Dose-Dependent Effect
MV4-11 [19]
  Activity: 0.048%
MV4-11 [20]
  Activity: 0.02%
MV4-11 [21]
  Activity: 21.3%
MV4-11 [22]
  Activity: 5.09%
MV4-11 [23]
  Activity: 0.12%
Wee1-like protein kinase [24]
  IC50: 21 nM
MV4-11 [25]
  Activity: 0.01%
MV4-11 [26]
  Activity: Dose-Dependent Effect
